Results from paper PMC9006931, “Altered Response Pattern following AZD5582 Treatment of SIV-Infected, ART-Suppressed Rhesus Macaque Infants” (Journal of Virology, 2022).

System: SIVmac251
Assay: On-ART viremia (latency reversal) during AZD5582 treatment of SIV-infected, ART-suppressed infant RMs
Assay type: in vivo, rhesus macaque (Macaca mulatta)
Excerpt: In this study, latency reversal was defined as a plasma SIV RNA level above 60 copies/mL during AZD5582 treatment in the presence of continued daily ART (or, “on-ART viremia”). […] On-ART viremia peaked at 771 copies/mL in RVf20 2 days post-dose 9. […] This low-level viremia contrasts, however, with the sustained suppression below 60 copies/mL in the 10 months before AZD5582 treatment in these 3 infants (Fig. 1B).
Twelve infant, Indian RMs (Macaca mulatta), with the exclusion of Mamu B*08- and B*17-positive animals, were enrolled in this study. The animals were born at the Yerkes National Primate Research Center (YNPRC) to dams housed in indoor/outdoor group housing. The infants were removed from the dams when they were approximately 2 weeks old and transferred to an indoor nursery, where they were housed in social pairs with either full contact or protected contact for the duration of the study. The infants were fed in accordance with the YNPRC standard operating procedures (SOPs) for NHP feeding. After being removed from the dam, infants were fed center-approved milk replacer (Similac Advance, OptiGro Infant Formula with Iron and/or Similac Soy Isomil OptiGro Infant Formula with Iron; Abbott Nutrition, Columbus, OH) until 14 weeks of age. Infants were provided softened standard primate jumbo chow biscuits (Jumbo Monkey Diet 5037; Purina Mills, St. Louis, MO) and a portion of orange starting between 2 to 4 weeks of age. As animals aged additional enrichment of various fresh produce items were provided daily. The animals were orally infected at 4 to 5 weeks of age with two consecutive doses of 10^5 TCID50 (50% tissue culture infectious doses) of SIVmac251. Three infants required multiple weekly 2-dose challenges before successful infection (totaling up to three challenges). Eight historical controls that followed the same regimen were included in this study. Yerkes National Primate Research Center is accredited by both the U.S. Department of Agriculture (USDA) and by the Association for Assessment and Accreditation of Laboratory Animal Care (AAALAC). All animal procedures were performed in accordance with guidelines established by the Emory University Institutional Animal Care and Use Committee Guidelines and those set up by the NIH’s Guide for the Care and Use of Laboratory Animals, 8th edition.
The 12 RM infants were treated with a potent three-drug ART regimen initiated at 4 weeks postinfection. The preformulation ART cocktail contained two reverse transcriptase inhibitors, 5.1 mg/kg tenofovir disoproxil fumarate (TDF) and 40 mg/kg emtricitabine (FTC), plus 2.5 mg/kg of the integrase inhibitor dolutegravir (DTG). This ART cocktail was administered once daily at […] via the subcutaneous route.
The IAPi AZD5582 was reconstituted to 0.4 mg/mL in 10% Captisol within 1 week of administration as previously described ([17]). Monkeys assigned to the experimental intervention group received 10 administrations of 0.1 mg/kg AZD5582 by intravenous (i.v.) infusion with an inline filter for 30 minutes every week for 10 weeks.
Plasma viral quantification was performed as described previously ([12]). The frozen cell pellet was lysed with proteinase K (100 μg/mL in 10 mM Tris-HCl pH 8) for 1h at 56°C. Quantification of SIVmac gag DNA was performed by quantitative PCR (qPCR) using the 5′ nuclease (TaqMan) assay with an ABI7500 system (PerkinElmer Life Sciences). The sequence of the forward primer for SIVmac gag was 5′-[…]-3′, the reverse primer sequence was 5′-[…]-3′, and the probe sequence was 5′-6-carboxyfluorescein (FAM)-[…]-6-carboxytetramethylrhodamine (TAMRA)-3′. 7.5 μL of cell lysate were mixed in a 50 μL reaction mixture containing 1× Platinum Buffer, 3.5 mM MgCl2, 0.2 mM dNTP, primers 200 nM, probe 150 nM, and 2U Platinum Taq. For cell number quantification, quantitative PCR was performed simultaneously for monkey albumin gene copy number. […]

[1] = 10 weekly doses 0.1 mg/kg i.v., LOD 60 copies/mL

CN[C@@H](C)C(=O)N[C@H](C(=O)N1CCC[C@H]1C(=O)N[C@H]1c2ccccc2C[C@H]1OCC#CC#CCO[C@@H]1Cc2ccccc2[C@@H]1NC(=O)[C@@H]1CCCN1C(=O)[C@@H](NC(=O)[C@H](C)NC)C1CCCCC1)C1CCCCC1 [AZD5582]
First instance of latency reversal, time after the 4th dose: 48 h
Start of on-ART viremia, time post-dose 4: 3 days
SIV reactivation, per animal (RMs with on-ART viremia above LOD) [1]: 5/8
SIV reactivation, per animal (percent of RMs with on-ART viremia) [1]: 63%
SIV reactivation, events >60 copies/ml (percent of measurements) (135 measurements in the 5 RMs with on-ART viremia): 6%
Peak on-ART viremia (RVf20, 2 days post-dose 9): 771 copies/mL
SIV reactivation, events >60 copies/ml (measurements above LOD) (of 135 viral load measurements in the 5 RMs with on-ART viremia): 8
